Experimental data as given in patent US11826429B2, “Pharmaceutical composition comprising brinzolamide” (SENTISS PHARMA PRIVATE LIMITED, priority 2014, dated 2023).
≈ marks a conversion by molar mass, not a printed value.

Assays:
[1] = Solubility studies (supernatant filtered through 0.45 syringe filter and analysed); type: physicochemical; details: for Solubility % w/v, No Further addition to the ingredients of Column 2: autoclaved 121° C./30 min, cooled; for Solubility % w/v, Polysorbate 80 (1%) in addition to the composition of Column 2: plus Polysorbate 80 (1%)
Protocol: (§1) Purified water was taken in Schott bottle. Brinzolamide was added with continuous stirring. After 30 min its pH was adjusted to 6. It was stirred for 24 hours. After which, the supernatant was filtered with 0.45 µm syringe filter and then its solubility was determined.
as §1, with “6 and was autoclaved at 121° C./30 min. After autoclaving the sample was cooled to room temperature.” for “6.”
Purified water is taken in Schott bottle. Soluplus® is added to it while stirring for 10-15 min. Polysorbate 80 is added to it while stirring for 10-20 min. After it has dissolved completely Brinzolamide is added with continuous stirring. After 30 min pH is checked and adjusted to 6 with 0.1 N NaOH. It is autoclaved at 121° C./30 min. After autoclaving the formulation is cooled to room temperature with stirring.
In order to determine the solubility the sample was centrifuged at 3500 rpm for 5 min followed by filtration through 0.45 µm syringe filter and analysis.

[2] = pH 6.25; cited from earlier work

Solubility when API is autoclaved and cooled ([1]; pH 6.0): 0.082%
Solubility % w/v, No Further addition to the ingredients of Column 2 ([1]; pH 6): 0.085 % w/v
Solubility % w/v, No Further addition to the ingredients of Column 2 ([1]; pH 6, listed as Autoclaved API): 0.0822 % w/v
Solubility % w/v, PEG 400 (5%) in addition to the composition of Column 2 ([1]; pH 6, autoclaved, plus PEG 400 (5%)): 0.0668 % w/v
Solubility % w/v, Polysorbate 80 (1%) in addition to the composition of Column 2 ([1]; pH 6, autoclaved): 0.2 % w/v
Solubility % w/v, Polysorbate 80 (1%) in addition to the composition of Column 2 ([1]; pH 6, autoclaved, listed as Autoclaved API): 0.2089 % w/v
solubility thermodynamic at 24 h ([1]; purified water, pH adjusted to 6, aqueous buffer, thermodynamic from solid, pH 6.0, not autoclaved, stirred 24 hours, read-out: Solubility determined in the lab): 0.545 mg/mL (≈ 1420 µM)
SMILES: CCN[C@H]1CN(CCCOC)S(=O)(=O)c2sc(S(N)(=O)=O)cc21 [brinzolamide, (R)-(+)-4-ethylamino-2-(3-methoxypropyl)-3,4-dihydro-2H-thieno[3,2-e]-1,2-thiazine-6-sulfonamide-1,1-dioxide]
Solubility as per literature [2]: 0.059 % w/v
